Results reported in US20220112217A1, “PYRAZOLOPYRIMIDINE DERIVATIVE AND USE THEREOF AS PI3K INHIBITOR” (MEDSHINE DISCOVERY INC., priority 2018, published 2022).
Read-outs that look alike come from different tables or passages of the source.

Assays:
[1] = target: PI3K delta (Homo sapiens, UniProt O00329); assay: In vitro enzyme activity assay (ADP-Glo lipid kinase), PI3K delta; details: PI3Kδ IC50, ATP 40 μM, PIP2:3PS 50 μM, 120 min;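 also: kinase reaction run at 23 °C, then leftover ATP depleted and the ADP formed turned back into ATP, with the luciferin/luciferase signal read as kinase activity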
Experimental: (§1) An appropriate substrate and ATP were incubated at a suitable condition for lipid kinase reaction, followed by a two-step detection of kinase activity using an ADP-Glo™ kit. Step I: The kinase reaction was terminated and residual ATP was completely removed, leaving ADP only; Step II: A kinase assay reagent was added to convert ADP to ATP by a luciferin/luciferase reaction. Finally, a fluorescence output value was detected and converted into kinase activity.
(§2) • 2) Kit: ADP-Glo™ lipid kinase and PIP2:3PS kit (Promega #V1792)
The kit comprises: 1 mM PIP2:3PS, 10× lipid dilution buffer, 1 M magnesium chloride, 10 mM ATP, 10 mM ADP, ADP-Glo reagent, detection buffer and substrate. • 3) Plate: OptiPlate-384, white and transparent (PerkinElmer #6007299) Reagent preparation: • 1) 10x reaction buffer: 500 mM HEPES (4-(2-hydroxyethyl)-1-piperazineethanesulfonic acid), pH 7.5, 500 mM NaCl, 9 mM MgCl2; BSA: 10% stock solution, prepared in-house • 2) Condition for final test system: 1× reaction system: 50 mM HEPES, 50 mM NaCl, 3 mM MgCl2, 0.01% BSA (prepared on the day of experiment), 1% DMSO (v/v) +/−compound • 3) Reaction system: 3 μL of enzyme and substrate mixture (1:1) +2 μL of ATP/MgCl2 mixture +5 μL of ADP-Glo reagent +10 μL detection reagent.
The specific experimental procedures are as follows: • 1) Dilution: 50 nL of 100× compound/DMSO solution were transferred into a test plate using Echo • For PI3Kα, the compound was serially diluted by three fold from the highest concentration 0.111 mM to the 10th concentration. • For PI3Kβ/PI3Kδ/PI3Kγ, the compound was serially diluted by three fold from the highest concentration of 1.11 mM to the 10th concentration. • 2) Kinase reaction: • (1) The target compounds were prepared. 50 nL of 100× compound solution or DMSO was added to the corresponding plate • (2) A 3.33 × reaction buffer was prepared • (3) A 3.33× PIP2:3PS solution were prepared; the PIP2:3PS solution should be thawed by vortex for at least 1 min before use • (4) An ATP solution containing 5.25 mM MgCl2 was prepared • (5) 3.33× PI3Kα/PI3Kβ/PI3Kδ/PI3Kγ solutions were prepared • (6) The lipid kinase solution and PIP2:3PS solution were mixed at a volume ratio of 1:1 • (7) The 3.33 × lipid kinase buffer and PIP2:3PS solution were mixed at a volume ratio of 1:1 • (8) 3 μL of the mixed solution of reaction buffer and PIP2:3PS was added to Columns 1 and 2 of the plate • (9) 3 μL of the mixed solution of the enzyme and PIP2:3PS was added to the wells of the plate other than Columns 1 and 2, and was centrifuged for 10 s (1000 rpm). The mixture was incubated at 23° C. for 20 min • (10) 2 μL of ATP solution was added, and the mixture was centrifuged at 1000 rpm and was shaken to mix well • (11) The plate was covered, shaken for about 30 s, and incubated for 2 h at 23° C. • (12) 5 μL of ADP-Glo reagent containing 10 mM MgCl2 was added • (13) The mixture was centrifuged at 1000 rpm for 10 s, covered and shaken for about 30 s, and incubated at 23° C. for 60 min • (14) 10 μL of kinase assay reagent was added • (15) The mixture was centrifuged at 1000 rpm for 10 s, and incubated at 23° C. for 60 min • (16) Fluorescence values were measured by an Envision system. • 2.

[2] = target: PI3K gamma (Homo sapiens, UniProt P48736); assay: In vitro enzyme activity assay (ADP-Glo lipid kinase), PI3K gamma; details: PI3Kγ IC50, ATP 25 μM, PIP2:3PS 50 μM, 120 min
Experimental: as §1, §2
(§3) The mixture was incubated at 23° C. for 20 min • (10) 2 μL of ATP solution was added, and the mixture was centrifuged at 1000 rpm and was shaken to mix well • (11) The plate was covered, shaken for about 30 s, and incubated for 2 h at 23° C. • (12) 5 μL of ADP-Glo reagent containing 10 mM MgCl2 was added • (13) The mixture was centrifuged at 1000 rpm for 10 s, covered and shaken for about 30 s, and incubated at 23° C. for 60 min • (14) 10 μL of kinase assay reagent was added • (15) The mixture was centrifuged at 1000 rpm for 10 s, and incubated at 23° C. for 60 min • (16) Fluorescence values were measured by an Envision system. • 2. […] The mixture was incubated at 37° C./CO2 for 10 min. • 5) The compound was removed by pipette. Lysis buffer was added at 50 μL/well, and the cells wereincubated on a shaker for 30 min. • 6) After the cells were completely lysed, 16 μL of lysate was transferred to a 384-well plate and 4 μL of prepared AC+D2 in the kit was added. (AC: Eu3+-cryptate antibody binds to phosphorylated AKT, while D2 binds to non-phosphorylated AKT) The mixture was incubated at room temperature for 4 h.

[3] = In vivo DMPK study, single dose in female Balb/c mice; details: for half-life: female, Balb/c, 1 mg/kg, note lists it as an intravenous parameter, read-out: T1/2 (half-life) (converted); for half-life / Cmax: mouse, plasma; for half-life / Oral DNAUC (dose-normalized area under curve): mice; for Cmax: oral 3 mg/kg, female Balb/c mice
Experimental: Objective: To evaluate the plasma concentration of the compounds and pharmacokinetics after a single dose in female Balb/c mice.
Procedures: 8 healthy adult female Balb/c mice were randomized, 4 for intravenous administration and 4 for oral administration. The compounds were mixed with a proper amount of vehicle for intravenous injection (DMSO/PEG200/water (5:45:50 v/v/v)). The mixture was vortexed and treated with ultrasound to give a 1.0 mg/mL clear solution. The clear solution was filtered through a microporous membrane filter for later use. For the oral group, the vehicle was 0.5% MC/0.2% Tween 80. The compound was mixed with the vehicle, and the mixture was vortexed and ultrasonically treated to give 1.0 mg/mL uniform suspension for later use. The mice were administered intravenously at 1 mg/kg or orally at 3 mg/kg. Whole blood was collected at certain time points, and plasma was separated. The drug concentration was measured by LC-MS/MS, and pharmacokinetic parameters were calculated using
Phoenix WinNonlin software (Pharsight, USA).

[4] = target: PI3K beta (Homo sapiens, UniProt P42338); assay: In vitro enzyme activity assay (ADP-Glo lipid kinase), PI3K beta
Experimental: as §1, §2, §3

[5] = target: PI3K alpha (Homo sapiens, UniProt P42336); assay: In vitro enzyme activity assay (ADP-Glo lipid kinase), PI3K alpha
Experimental: as §1, §2, §3

[6] = system: TMD-8 cell; assay: TMD-8 cell viability test (CellTiter-Glo, 72 h); assay type: cell-based; details: Homo sapiens, TMD8
Experimental: 7) After incubation, readings at 620 and 665 nm on EnVingen were recorded. • <2> TMD-8 cell viability test • 1) Cell Culture
Cells were regularly passaged. Cells at logarithmic growth phase were transferred to the plate. • 2) Plating • (1). Cells were stained with trypan blue and viable cells were counted. • (2). Cell concentration was adjusted to 7000 cells/well • (3). 90 μL of cell suspension was added to each well of the plate and cell-free medium was added to blank control wells. • (4). The plate was incubated overnight at 37° C., 5% CO2 and 100% relative humidity in an incubator. • 3) Preparation of Plate Containing Compound Stock
(1). Preparation of plate containing 400× compound stock: Compounds were diluted from the highest concentration gradient to lowest concentration with DMSO. • 4) Preparation of 10× compound working solution and treatment • (1). Preparation of 10× compound working solution: 78 μL of cell culture medium was added to a V-bottom 96-well plate, and 2 μL of compound stock solution was pipetted from the plate containing 400× compound stock into the cell cultures of 96-well plate. 2 μL of DMSO was added to the vehicle control wells and blank control wells. After compounds or DMSO was added, the mixture was well mixed by a pipette. • (2). 10 μL of DMSO-cell culture medium mixture solution was added to the vehicle control wells and blank control wells. The final concentration of DMSO was 0.25%. • (3). The 96-well cell plate was incubated in the incubator for another 72 h. • 5) CellTiter-Glo Luminescent Cell Viability Assay
The following procedure was performed according to the instructions of Promega CellTiter-Glo luminescent cell viability assay kit (Promega-G7573). • (1). CellTiter-Glo buffer was thawed and let stand at room temperature. • (2). The CellTiter-Glo substrate was let stand at room temperature. • (3). The CellTiter-Glo buffer was added to a flask of CellTiter-Glo substrate to dissolve the substrate, thereby preparing a CellTiter-Glo working solution. • (4). The solution was vortexed to completely dissolve the substrate. • (5). The plate was incubated at room temperature for 30 min for equilibration. • (6). 50 μL (equal to half the volume of cell culture medium in each well) of CellTiter-Glo working solution was added to each well. The plate was covered by aluminum foil to avoid light. • (7). The plate was shaken on an orbital shaker for 2 min to induce cell lysis. • (8). The plate was let stand at room temperature for 10 min to stabilize the luminescence signals. • (9). The luminescence signals were detected on 2104 EnVision plate reader.

Sequence of PI3K gamma (P48736 whole entry): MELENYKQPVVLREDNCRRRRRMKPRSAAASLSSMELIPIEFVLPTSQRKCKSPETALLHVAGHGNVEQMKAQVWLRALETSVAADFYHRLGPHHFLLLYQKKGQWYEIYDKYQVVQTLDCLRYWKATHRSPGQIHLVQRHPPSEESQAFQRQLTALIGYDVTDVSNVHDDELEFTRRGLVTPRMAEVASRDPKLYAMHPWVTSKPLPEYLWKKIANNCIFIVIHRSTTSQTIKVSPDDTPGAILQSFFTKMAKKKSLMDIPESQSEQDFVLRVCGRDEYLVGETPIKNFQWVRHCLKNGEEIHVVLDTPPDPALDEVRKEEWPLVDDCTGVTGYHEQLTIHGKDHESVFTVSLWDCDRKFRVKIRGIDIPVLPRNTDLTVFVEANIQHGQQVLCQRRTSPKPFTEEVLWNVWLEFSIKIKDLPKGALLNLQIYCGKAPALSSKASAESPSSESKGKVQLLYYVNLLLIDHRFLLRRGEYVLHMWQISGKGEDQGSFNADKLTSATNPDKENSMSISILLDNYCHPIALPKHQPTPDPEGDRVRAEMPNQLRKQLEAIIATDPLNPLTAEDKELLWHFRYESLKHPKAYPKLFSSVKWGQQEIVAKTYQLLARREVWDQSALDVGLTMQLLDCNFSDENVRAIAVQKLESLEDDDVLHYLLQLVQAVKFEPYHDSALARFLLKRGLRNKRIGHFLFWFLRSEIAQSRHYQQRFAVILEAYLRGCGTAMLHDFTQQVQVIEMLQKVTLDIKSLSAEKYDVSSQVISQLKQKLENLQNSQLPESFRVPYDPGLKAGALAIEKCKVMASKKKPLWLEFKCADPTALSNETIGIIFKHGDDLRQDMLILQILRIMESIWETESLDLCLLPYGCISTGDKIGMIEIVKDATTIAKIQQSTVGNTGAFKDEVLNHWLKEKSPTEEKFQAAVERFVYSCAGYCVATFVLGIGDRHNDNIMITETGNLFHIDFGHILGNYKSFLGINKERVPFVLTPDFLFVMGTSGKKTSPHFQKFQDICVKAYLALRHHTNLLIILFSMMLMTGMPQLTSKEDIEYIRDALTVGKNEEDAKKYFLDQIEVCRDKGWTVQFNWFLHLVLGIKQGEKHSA
Sequence of PI3K delta (O00329 whole entry): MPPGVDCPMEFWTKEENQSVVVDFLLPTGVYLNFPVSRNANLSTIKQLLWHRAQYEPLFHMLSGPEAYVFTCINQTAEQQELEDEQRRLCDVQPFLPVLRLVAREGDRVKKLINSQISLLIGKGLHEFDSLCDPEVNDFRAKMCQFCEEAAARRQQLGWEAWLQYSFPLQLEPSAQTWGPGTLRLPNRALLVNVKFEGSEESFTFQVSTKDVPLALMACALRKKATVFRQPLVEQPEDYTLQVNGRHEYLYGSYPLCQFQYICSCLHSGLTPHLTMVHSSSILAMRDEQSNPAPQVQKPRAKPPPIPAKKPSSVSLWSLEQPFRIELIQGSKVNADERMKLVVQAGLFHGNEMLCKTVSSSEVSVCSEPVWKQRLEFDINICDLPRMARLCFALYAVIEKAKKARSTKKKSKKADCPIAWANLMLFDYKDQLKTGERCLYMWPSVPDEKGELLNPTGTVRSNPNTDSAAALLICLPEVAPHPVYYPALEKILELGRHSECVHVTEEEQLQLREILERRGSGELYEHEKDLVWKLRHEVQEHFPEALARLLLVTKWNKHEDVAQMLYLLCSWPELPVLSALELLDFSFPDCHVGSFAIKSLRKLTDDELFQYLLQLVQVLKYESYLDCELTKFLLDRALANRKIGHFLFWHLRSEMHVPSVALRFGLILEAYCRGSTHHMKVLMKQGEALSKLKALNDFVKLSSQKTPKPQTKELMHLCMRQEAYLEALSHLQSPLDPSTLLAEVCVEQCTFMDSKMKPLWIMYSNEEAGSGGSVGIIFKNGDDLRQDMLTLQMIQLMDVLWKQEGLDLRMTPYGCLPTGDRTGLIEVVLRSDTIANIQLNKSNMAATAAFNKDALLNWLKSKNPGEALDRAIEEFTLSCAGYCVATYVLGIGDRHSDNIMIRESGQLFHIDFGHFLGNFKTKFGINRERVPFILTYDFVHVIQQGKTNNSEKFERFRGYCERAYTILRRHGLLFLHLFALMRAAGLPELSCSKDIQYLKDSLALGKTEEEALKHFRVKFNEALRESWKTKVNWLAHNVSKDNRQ
Sequence of PI3K delta (P27986 whole entry partner): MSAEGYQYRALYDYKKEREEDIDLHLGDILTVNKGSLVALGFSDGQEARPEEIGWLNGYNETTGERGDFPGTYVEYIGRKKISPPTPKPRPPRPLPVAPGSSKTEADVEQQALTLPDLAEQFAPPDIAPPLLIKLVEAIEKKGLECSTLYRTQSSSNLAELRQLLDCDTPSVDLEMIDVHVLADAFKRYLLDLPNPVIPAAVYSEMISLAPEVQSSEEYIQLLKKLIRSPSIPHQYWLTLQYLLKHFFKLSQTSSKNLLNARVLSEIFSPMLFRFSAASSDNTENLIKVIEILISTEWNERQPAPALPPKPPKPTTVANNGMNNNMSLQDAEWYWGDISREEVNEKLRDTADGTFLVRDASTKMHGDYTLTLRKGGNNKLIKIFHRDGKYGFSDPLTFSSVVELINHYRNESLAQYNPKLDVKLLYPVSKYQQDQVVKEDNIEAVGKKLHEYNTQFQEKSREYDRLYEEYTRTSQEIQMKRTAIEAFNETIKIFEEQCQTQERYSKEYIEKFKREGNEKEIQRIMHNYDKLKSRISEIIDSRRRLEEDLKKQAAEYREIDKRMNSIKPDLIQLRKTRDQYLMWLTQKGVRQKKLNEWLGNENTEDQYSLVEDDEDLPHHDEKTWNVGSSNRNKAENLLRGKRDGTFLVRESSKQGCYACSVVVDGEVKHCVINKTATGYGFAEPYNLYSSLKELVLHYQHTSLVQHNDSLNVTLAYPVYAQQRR
Sequence of PI3K beta (P42338 whole entry): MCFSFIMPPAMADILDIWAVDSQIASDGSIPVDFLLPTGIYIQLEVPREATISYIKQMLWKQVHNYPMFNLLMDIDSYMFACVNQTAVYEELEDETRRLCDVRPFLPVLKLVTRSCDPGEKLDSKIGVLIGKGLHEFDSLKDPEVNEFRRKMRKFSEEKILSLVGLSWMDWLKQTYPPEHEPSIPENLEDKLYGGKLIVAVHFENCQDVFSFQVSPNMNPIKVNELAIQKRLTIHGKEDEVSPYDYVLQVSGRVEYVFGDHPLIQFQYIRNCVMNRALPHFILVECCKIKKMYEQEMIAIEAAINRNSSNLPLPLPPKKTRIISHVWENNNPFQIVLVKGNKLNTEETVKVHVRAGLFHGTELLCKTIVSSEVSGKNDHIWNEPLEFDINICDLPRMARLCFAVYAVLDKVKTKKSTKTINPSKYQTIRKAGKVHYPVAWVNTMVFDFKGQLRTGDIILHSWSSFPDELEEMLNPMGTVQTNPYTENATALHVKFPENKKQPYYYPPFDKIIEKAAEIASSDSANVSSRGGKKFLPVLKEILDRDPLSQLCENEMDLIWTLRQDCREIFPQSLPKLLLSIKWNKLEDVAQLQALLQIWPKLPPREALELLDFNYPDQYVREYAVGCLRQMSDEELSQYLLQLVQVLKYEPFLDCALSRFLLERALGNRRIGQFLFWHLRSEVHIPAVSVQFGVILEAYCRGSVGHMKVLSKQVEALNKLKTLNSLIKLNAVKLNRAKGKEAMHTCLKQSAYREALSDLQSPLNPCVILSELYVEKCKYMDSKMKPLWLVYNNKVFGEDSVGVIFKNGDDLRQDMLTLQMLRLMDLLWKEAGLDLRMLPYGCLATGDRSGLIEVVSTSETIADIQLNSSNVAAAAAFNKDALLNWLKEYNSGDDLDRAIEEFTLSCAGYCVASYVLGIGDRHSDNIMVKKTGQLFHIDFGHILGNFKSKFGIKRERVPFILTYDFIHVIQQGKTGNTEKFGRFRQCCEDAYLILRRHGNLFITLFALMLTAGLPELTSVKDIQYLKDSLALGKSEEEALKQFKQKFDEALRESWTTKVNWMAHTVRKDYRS
Sequence of PI3K beta (P27986 whole entry partner): as the sequence (P27986 whole entry partner) above
Sequence of PI3K alpha (P42336 whole entry): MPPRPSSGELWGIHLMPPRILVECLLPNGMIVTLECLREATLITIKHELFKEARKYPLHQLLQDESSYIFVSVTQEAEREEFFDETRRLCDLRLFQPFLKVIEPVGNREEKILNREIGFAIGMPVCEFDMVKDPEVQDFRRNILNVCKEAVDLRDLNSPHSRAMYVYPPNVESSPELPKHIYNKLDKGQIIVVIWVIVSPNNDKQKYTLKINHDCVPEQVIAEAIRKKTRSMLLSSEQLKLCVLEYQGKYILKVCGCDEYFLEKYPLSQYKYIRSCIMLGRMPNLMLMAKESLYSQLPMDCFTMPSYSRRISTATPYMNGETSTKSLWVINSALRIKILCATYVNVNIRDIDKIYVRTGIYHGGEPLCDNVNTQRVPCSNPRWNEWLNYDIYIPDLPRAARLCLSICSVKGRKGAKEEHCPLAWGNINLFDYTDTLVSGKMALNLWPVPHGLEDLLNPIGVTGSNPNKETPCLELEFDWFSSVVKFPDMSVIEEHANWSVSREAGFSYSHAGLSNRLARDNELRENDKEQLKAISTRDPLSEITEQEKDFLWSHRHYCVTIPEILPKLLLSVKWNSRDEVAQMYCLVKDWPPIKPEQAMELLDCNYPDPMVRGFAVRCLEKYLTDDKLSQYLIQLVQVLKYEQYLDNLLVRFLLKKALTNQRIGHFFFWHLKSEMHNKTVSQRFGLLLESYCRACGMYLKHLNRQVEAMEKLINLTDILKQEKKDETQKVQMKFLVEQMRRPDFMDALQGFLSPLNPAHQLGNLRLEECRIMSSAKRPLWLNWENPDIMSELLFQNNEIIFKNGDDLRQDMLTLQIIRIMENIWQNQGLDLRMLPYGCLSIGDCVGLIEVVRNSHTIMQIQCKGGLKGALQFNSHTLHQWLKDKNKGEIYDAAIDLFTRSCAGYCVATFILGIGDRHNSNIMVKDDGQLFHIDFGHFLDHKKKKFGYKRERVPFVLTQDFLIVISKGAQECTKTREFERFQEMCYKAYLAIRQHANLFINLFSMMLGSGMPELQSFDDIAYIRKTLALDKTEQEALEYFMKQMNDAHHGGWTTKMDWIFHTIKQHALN
Sequence of PI3K alpha (P27986 whole entry partner): as the sequence (P27986 whole entry partner) above

Structure (SMILES)	IC50 [1]	IC50 [2]	also measured
CC(C)Oc1ccc(-c2nn(C(C)c3nc4c(Cl)cc(F)cn4c(=O)c3-c3cccc(F)c3)c3ncnc(N)c23)cc1F (stereo not drawn) [WX014]	229 nM	620 nM	
Cc1nc(C)c(-c2nn(C(C)c3nc4ccc(F)cn4c(=O)c3-c3cccc(F)c3)c3ncnc(N)c23)s1 (stereo not drawn) [WX022]	601 nM	9860 nM	
CNc1ncc(-c2nn(C(C)c3nc4ccc(F)cn4c(=O)c3-c3cccc(F)c3)c3ncnc(N)c23)s1 (stereo not drawn) [WX034]	4 nM	408 nM	
Cc1cccc2nc(C(C)n3nc(-c4ccc(OC(C)C)c(F)c4)c4c(N)ncnc43)c(-c3cccc(F)c3)c(=O)n12 (stereo not drawn) [WX040]	271 nM	455 nM	
CC(C)Oc1ccc(-c2nn(C(C)c3nc4c(F)cccn4c(=O)c3-c3cccc(F)c3)c3ncnc(N)c23)cc1F (single isomer, unassigned) [WX013]	297 nM	573 nM	
COc1ncc(-c2nn(C(C)c3nc4ccc(F)cn4c(=O)c3-c3cccc(F)c3)c3ncnc(N)c23)s1 (single isomer, unassigned) [WX008]	783 nM	> 10000 nM	
CC(c1nc2ccc(F)cn2c(=O)c1-c1cccc(F)c1)n1nc(-c2cnc(C(C)(C)C)s2)c2c(N)ncnc21 (stereo not drawn) [WX032]	16.3 nM	1740 nM	half-life [3]: 1100 min; Cmax [3]: 1500 nM; Oral DNAUC (dose-normalized area under curve) [3]: 2662 nM · h/mpk
Cc1ncc(-c2nn(C(C)c3nc4ccc(F)cn4c(=O)c3-c3cccc(F)c3)c3ncnc(N)c23)s1 (stereo not drawn) [WX050]	13.9 nM	582 nM	half-life [3]: 143 min; Cmax [3]: 1260 nM; Oral DNAUC (dose-normalized area under curve) [3]: 1513 nM · h/mpk
CC(C)Oc1ncc(-c2nn(C(C)c3nc4ccc(F)cn4c(=O)c3-c3cccc(F)c3)c3ncnc(N)c23)cc1C#N (single isomer, unassigned) [WX024]	313 nM	7170 nM	
CC(C)Oc1ccc(-c2nn(C(C)c3nc4ccc(F)cn4c(=O)c3-c3cccc(F)c3)c3ncnc(N)c23)cc1F (single isomer, unassigned) [WX002]	> 1000 nM	> 10000 nM	IC50 ([4]; read-out: PI3Kβ IC50, ATP 40 μM, PIP2:3PS 50 μM, 120 min): > 10 µM; IC50 ([5]; read-out: PI3Kα IC50, ATP 40 μM, PIP2:3PS 50 μM, 120 min): > 10 µM
CSc1ccc(-c2nn(C(C)c3nc4ccc(F)cn4c(=O)c3-c3cccc(F)c3)c3ncnc(N)c23)cn1 (stereo not drawn) [WX036]	66.6 nM	1210 nM	
CC(c1nc2ccc(F)cn2c(=O)c1-c1cccc(F)c1)n1nc(-c2cnc(OCC(F)(F)F)s2)c2c(N)ncnc21 (stereo not drawn) [WX028]	330 nM	2940 nM	
CC(c1nc2ccc(F)cn2c(=O)c1-c1cccc(F)c1)n1nc(-c2cnc(OCC(F)F)s2)c2c(N)ncnc21 (stereo not drawn) [WX016]	41.5 nM	260 nM	IC50 [6]: 4.11 µM; half-life [3]: 231 min; Cmax [3]: 2180 nM; Oral DNAUC (dose-normalized area under curve) [3]: 5599 nM · h/mpk
CC(c1nc2ccc(F)cn2c(=O)c1-c1cccc(F)c1)n1nc(-c2cnc3c(c2)OCCO3)c2c(N)ncnc21 (stereo not drawn) [WX056]	188 nM	735 nM	Cmax [3]: 4950 nM; Oral DNAUC (dose-normalized area under curve) [3]: 2037 nM · h/mpk; IC50 [4]: > 10 µM; IC50 [5]: > 10 µM
CC(c1nc2ccc(F)cn2c(=O)c1-c1cccc(F)c1)n1nc(-c2cnc(OC3CC(F)(F)C3)s2)c2c(N)ncnc21 (stereo not drawn) [WX020]	491 nM	275 nM	IC50 [6]: > 50 µM
CC(C)Oc1ncc(-c2nn(C(C)c3nc4ccc(F)cn4c(=O)c3-c3cccc(F)c3)c3ncnc(N)c23)s1 (stereo not drawn) [WX048]	72.5 nM	2030 nM	
COc1ccc(-c2nn(C(C)c3nc4ccc(F)cn4c(=O)c3-c3cccc(F)c3)c3ncnc(N)c23)cn1 (single isomer, unassigned) [WX011]	604 nM	> 10000 nM	
COCCOc1ncc(-c2nn(C(C)c3nc4ccc(F)cn4c(=O)c3-c3cccc(F)c3)c3ncnc(N)c23)s1 (stereo not drawn) [WX018]	122 nM	1550 nM	IC50 [6]: 3.42 µM; half-life [3]: 84 min; Cmax [3]: 2240 nM; Oral DNAUC (dose-normalized area under curve) [3]: 1244 nM · h/mpk
CC(C)Oc1ccc(-c2nn(C(C)c3nc4ccc(F)cn4c(=O)c3-c3cccc(F)c3)c3ncnc(N)c23)cn1 (single isomer, unassigned) [WX003]	> 1000 nM	> 10000 nM	
CC(c1nc2ccc(F)cn2c(=O)c1-c1cccc(F)c1)n1nc(-c2cnc(N(C)C)s2)c2c(N)ncnc21 (stereo not drawn) [WX046]	3.48 nM	494 nM	half-life [3]: 104 min; Cmax [3]: 1560 nM; Oral DNAUC (dose-normalized area under curve) [3]: 1648 nM · h/mpk
COc1ncc(-c2nn(C(C)c3nc4ccc(F)cn4c(=O)c3-c3cccc(F)c3)c3ncnc(N)c23)cc1C#N (single isomer, unassigned) [WX006]	> 1000 nM	> 10000 nM	
COc1ccc(-c2nn(C(C)c3nc4ccc(F)cn4c(=O)c3-c3cccc(F)c3)c3ncnc(N)c23)cc1F (stereo not drawn) [WX009]	> 1000 nM	> 10000 nM	
CC(c1nc2ccc(F)cn2c(=O)c1-c1cccc(F)c1)n1nc(-c2cnc(OC3CC3)s2)c2c(N)ncnc21 (stereo not drawn) [WX030]	45.6 nM	1190 nM	
CC(C)Oc1ncc(-c2nn(C(C)c3nc4ccc(F)cn4c(=O)c3-c3cccc(F)c3)c3ncnc(N)c23)cc1C#N (single isomer, unassigned) [WX025]	461 nM	1130 nM	
